Assay results published in the Kinase Knowledgebase extract (Sharma et al. 2016).
pIC50: −log10 of the molar value.

The molecules below were run against MAPK14 (human) (UniProt Q16539) (assay: Inhibition of MAPK14 Kinase Activity).
Sequence of MAPK14 (human) (Q16539 whole entry, looked up): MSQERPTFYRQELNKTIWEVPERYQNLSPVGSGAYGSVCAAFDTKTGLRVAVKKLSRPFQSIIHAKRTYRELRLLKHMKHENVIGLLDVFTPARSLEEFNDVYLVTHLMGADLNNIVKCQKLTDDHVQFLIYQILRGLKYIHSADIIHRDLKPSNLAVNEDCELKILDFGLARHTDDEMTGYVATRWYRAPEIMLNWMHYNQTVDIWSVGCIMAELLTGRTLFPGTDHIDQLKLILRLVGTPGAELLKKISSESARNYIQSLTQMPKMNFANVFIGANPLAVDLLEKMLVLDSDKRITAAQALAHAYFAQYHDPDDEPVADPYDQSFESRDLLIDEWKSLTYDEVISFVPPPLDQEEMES

Row | pIC50 | SMILES
1 | > 5.00 | CC(C)n1c(=O)ccc2c(-c3ccccc3F)nc(NS(C)(=O)=O)nc21
2 | > 5.00 | CSc1nc(-c2ccc(F)cc2C)c2ccc(=O)n(C3CCCCC3)c2n1
3 | > 5.00 | CCNc1nc(-c2ccc(F)cc2C)c2ccc(=O)n(-c3ccccc3F)c2n1
4 | > 5.00 | Cc1cc(F)ccc1-c1nc(NC[C@@H](C)O)nc2c1ccc(=O)n2-c1ccccc1C
5 | > 5.00 | Cc1cc(F)ccc1-c1nc(NCCNC(=O)NC2CCCCC2)nc2c1ccc(=O)n2-c1c(F)cccc1F
6 | > 5.00 | Cc1cc(F)ccc1-c1nc(NCCC(=N)NO)nc2c1ccc(=O)n2-c1c(F)cccc1F
7 | > 5.00 | Cc1cc(F)ccc1-c1nc(NCC(F)(F)F)nc2c1ccc(=O)n2-c1c(F)cccc1F
8 | > 5.00 | O=c1ccc2c(-c3ccccc3F)nc(NC(CO)CO)nc2n1CC1CC1
9 | > 5.00 | CC(CO)(CO)Nc1nc(-c2ccccc2Cl)c2ccc(=O)n(-c3ccccc3Cl)c2n1
10 | > 5.00 | CSc1nc(Cl)c(C=O)c(NC2CCCCC2)n1
11 | > 5.00 | Cc1cc(F)ccc1-c1nc(NCC(C)(C)O)nc2c1ccc(=O)n2-c1c(F)cccc1F
12 | > 5.00 | Cc1cc(F)ccc1-c1nc(NC(C)(CO)CO)nc2c1ccc(=O)n2-c1ccccc1F
13 | > 5.00 | Cc1cc(F)ccc1-c1nc(NC(CO)CO)nc2c1ccc(=O)n2C1CC1
14 | > 5.00 | Cc1cc(F)ccc1-c1nc(S(C)(=O)=O)nc2c1ccc(=O)n2-c1ccccc1C
15 | > 5.00 | Cc1cc(F)ccc1-c1nc(NC(CO)CO)nc2c1ccc(=O)n2-c1c(F)cccc1F
16 | > 5.00 | Cc1cc(F)ccc1-c1nc(Nc2ccnc(=O)[nH]2)nc2c1ccc(=O)n2-c1c(F)cccc1F
17 | > 5.00 | Cc1cc(F)ccc1-c1nc(NC(C)(CO)CO)nc2c1ccc(=O)n2-c1c(F)cccc1F
18 | > 5.00 | Cc1cc(F)ccc1-c1nc(NCC(=O)N2CC(O)C2)nc2c1ccc(=O)n2-c1c(F)cccc1F
19 | > 5.00 | CCCCOc1nc(-c2ccc(F)cc2C)c2ccc(=O)n(-c3c(F)cccc3F)c2n1
20 | > 5.00 | CCC(C)n1c(=O)ccc2c(-c3ccccc3F)nc(SC)nc21 (stereo unspecified)
21 | > 5.00 | CCNc1nc(-c2ccc(F)cc2C)c2ccc(=O)n(-c3ccccc3C)c2n1
